Source: paper PMC5962729 (Frontiers in Pharmacology, 2018)
Read-outs that look alike come from different tables or passages of the source.

Assays:
[1] = Pharmacokinetic study of YCHD components and phase II metabolites in ANIT-induced cholestatic rats (UHPLC-MS/MS, sulfatase enzymolysis); format: in vivo, rat; conditions: for AUC(0-∞) / Ka: Model group (ANIT 50 mg/kg cholestatic rats); for AUC(0-∞) / Ka / AUC(0-∞) increased by, cholestatic model rats compared with normal rats / Cmax increased by, cholestatic model rats compared with normal rats / AUC(0-∞) reduced by, cholestatic model rats compared with normal rats / Cmax reduced by, cholestatic model rats compared with normal rats: single oral YCHD 12 g/kg; for Cmax / Tmax / CL/F / MRT inf / Vd/F / half-life: rat, po, 12 g/kg; for CL/F: read-out: CLz/F; for MRT inf: read-out: MRT (0-∞) (converted); for Vd/F: read-out: Vz/F; for half-life: read-out: t1/2z; for in vivo absorption and excretion processes in cholestatic rats (comparison of Ka and Ke): versus normal rats, oral YCHD 12 g/kg
Procedure: To explore the pharmacokinetic properties of YCHD following intragastric administration in rats, a rapid and sensitive method involving the use of UHPLC-MS/MS (Agilent 6460 series, Agilent Technologies, Santa Clara, CA, United States) was developed and validated for the simultaneous quantification of 10 active components of rat plasma. The quantification was conducted in ESI negative ionization mode, and the mass spectrometry conditions were as follows: capillary voltage, 3500 V; gas flow, 12 L/min; nebulizer, 40 psi; gas temperature, 350°C; and delta EMV (-), 400.
To each 50 μL plasma sample, 10 μL of internal standard solution (paeoniflorin, 1000 ng/mL) and 300 μL of a mixed solution of methanol and acetonitrile (v/v, 1:1; containing 1% formic acid) were added. Subsequently, the solution was vortex mixed for 5 min. After centrifugation at 15,000 rpm for 5 min, the supernatant was transferred completely into a tube, before being evaporated under N2 at 40°C. The residue was then dissolved in 50 μL of 50% methanol–water (v/v, 1:1) through vortexing for 5 min, after centrifugation at 15,000 rpm for 10 min. Finally, 5 μL of the supernatant sample was injected into the UHPLC-MS/MS system for analysis.
The rats were randomly divided into two groups (n = 5 for each group). […] The blood samples were centrifuged at 4000 rpm for 10 min, and the supernatant plasma was harvested. Plasma samples (50 μL) were immediately processed as outlined in Section “Chromatographic and Mass Spectrometry Conditions.”
Additional plasma samples (50 μL) were enzymatically hydrolyzed with 50 μL of enzyme solution (65.86 mg of sulfatase, dissolved in 2 mL of sodium acetate buffer, pH 5.0) for phase II metabolite quantification, in accordance with our previous study ([Ding et al., 2012]). After being vortex mixed for 5 min, the mixture was incubated at 37°C for 30 min and then returned to room temperature. Subsequently, the samples were processed as outlined in Section “Chromatographic and Mass Spectrometry Conditions” for UHPLC-MS/MS analysis. During routine analysis, each analytical run included six blank plasma samples, a set of calibration samples, a set of QC samples, and unknowns.
All data are presented as mean ± SD. A one-way analysis of variance was used to compare data between two groups using SPSS (Version 21.0). The differences were considered to be statistically significant when p < 0.05 and highly significant when p < 0.01 or p < 0.001. Pharmacokinetic data analysis was performed using DAS 2.1.1 software (Mathematical Pharmacology Professional Committee of China, Shanghai, China).
The specific contents of the phase II metabolites of these components were detected indirectly by evaluating the content difference of their prototypes in samples after enzymolysis and before enzymolysis
CG = Ca −[MG × (CGG/MGG + CGe/MGe)]
Ca, CGG, and CGe represent the concentration of genipin, genipin-1-β-D-gentiobioside, and geniposide after enzymolysis of sulfatase, respectively. MG, MGG-, and MGe represent the mass of genipin, genipin-1-β-D-gentiobioside, and geniposide, respectively.

[2] = Identification of components and metabolites of YCHD in rat plasma, bile, urine and feces (UHPLC/Q-TOF-MS); format: in vivo; conditions: rats, oral YCHD 12 g/kg, urine, feces
Procedure: After centrifuging at 4000 rpm for 10 min, supernatant plasma was harvested into heparinized tubes and then stored at -20°C for preservation. The rats in the second group (n = 6) were kept individually in metabolic cages to collect urine and feces. […] Subsequently, the rats were orally administered a single dose of YCHD (12 g/kg of body weight). […] For the third group of rats (n = 6), bile duct intubation was implemented, and blank bile samples were collected before administration. After the administration of YCHD at 12 g/kg of body weight, the drug-containing bile samples were collected.
Plasma, bile, and urine samples (200 μL each) were separately precipitated with six times of methanol–acetonitrile mixed solution (v/v, 1:1; containing 1% formic acid). After being vortex mixed for 5 min and centrifuged at 15,000 rpm for 5 min at 4°C, the supernatant was separated into another clean tube and dried under a gentle stream of nitrogen at 45°C. Subsequently, the residue was reconstituted in 100 μL of 50% methanol–water (v/v) and then vortex mixed for 10 min. After another round of centrifugation at 15,000 rpm for 5 min at 4°C, 5 μL of the supernatant was analyzed by UHPLC-MS/MS. A 0.5 g sample of naturally dried feces was supplemented with 2 mL of 80% methanol–water (v/v) and then ultrasonically extracted for 30 min at 4°C. After being centrifuged at 15,000 rpm for 10 min, the supernatant was dried under a gentle stream of nitrogen at 45°C. Finally, the residue was reconstituted in 1 mL of 50% methanol–water (v/v) and then vortex mixed for 10 min. After another round of centrifugation at 15,000 rpm for 5 min at 4°C, 5 μL of the supernatant sample was injected into the UHPLC-MS/MS system for analysis.
Separations were conducted on an Agilent SB-C18 column (2.1 mm × 50 mm, 1.8 μm) of a UHPLC/Q-TOF-MS system (Waters, Corp., Milford, MA, United States) maintained at 40°C.
A Synapt G2 quadrupole time-of-flight (Q/TOF) MS/MS system (Waters, Corp., Manchester, United Kingdom) equipped with an electrospray ionization (ESI) interface was operated in negative ionization mode and controlled by MassLynx software (Version 4.1). The optimized conditions for maximum detection of metabolites were as follows: the capillary voltage was set at 3.0 kV, extraction cone voltage was set at 10 and 15 V, source temperature was maintained at 120°C, and desolvation temperature was maintained at 450°C. […] An MS^E approach using a dynamic ramp of collision energy was also applied at two (low and high collision energies) scan functions. The following parameters were set: Function 1 (low energy)—mass scan range, 100–1000; scan time, 0.25 s; interscan delay, 0.05 s; collision energy, 4 V. Function 2 (high energy)—mass scan range, 100–1000; scan time, 0.2 s; interscan delay, 0.05 s; collision energy ramp, 10–30 V. Data were acquired using Masslynx^TM (Version 4.1. Waters, Crop., Milford, MA, United States), and Metabolynx^TM (Waters, Crop., Milford, MA, United States) was applied for post-acquisition data processing.

| Cmax ([1]; plasma) | Tmax ([1]; plasma) | CL/F ([1]; plasma) | MRT inf ([1]; plasma) | Vd/F ([1]; plasma) | half-life ([1]; plasma) | AUC(0-∞) reduced by, cholestatic model rats compared with normal rats [1] | Cmax reduced by, cholestatic model rats compared with normal rats [1] | Structure (SMILES) | AUC(0-∞) ([1]; plasma) | Ka ([1]; plasma) | Vd/F ([1]; in vivo) | half-life ([1]; in vivo) | AUC(0-∞) increased by, cholestatic model rats compared with normal rats [1] | Cmax increased by, cholestatic model rats compared with normal rats [1] | in vivo absorption and excretion processes in cholestatic rats (comparison of Ka and Ke) [1] | Source (biological samples in which the compound was identified) [2] | Vd/F ([1]; Sprague Dawley, plasma) | half-life ([1]; Sprague Dawley, plasma) | further results |
| --- | --- | --- | --- | --- | --- | --- | --- | --- | --- | --- | --- | --- | --- | --- | --- | --- | --- | --- | --- |
| – | – | – | – | – | – | – | – | COC(=O)C1=CO[C@@H](O[C@@H]2O[C@H](CO)[C@@H](O)[C@H](O)[C@H]2O)[C@@H]2C(CO)=CC[C@H]12 [Geniposide] | 956445.5 ± 420665.9 µg·min/L | 1543.0 ± 592.8 min⁻¹ | 22.4 ± 7.5 L/kg | 5.64 ± 0.467 h | 148.9% | 10.2% | significantly enhanced | Plasma, bile, urine, feces | – | – | Cmax ([1]; in vivo): 578 ± 59.6 ng/mL; Tmax ([1]; in vivo): 0.45 h; CL/F ([1]; in vivo): 45 ± 12 mL/min/kg; MRT inf ([1]; in vivo): 7.5 h |
| 422 ± 87.5 ng/mL | 0.25 h | 221 ± 84 mL/min/kg | 2.83 h | 41.4 ± 20.8 L/kg | 2.19 ± 0.812 h | 80.9% | 86.1% | O=C(O)c1cc(O)c2c(c1)C(=O)c1cccc(O)c1C2=O [Rhein] | 172453.1 ± 108249.8 µg·min/L | 478.1 ± 200.1 min⁻¹ | – | – | – | – | inhibited | Plasma, bile, urine, feces | – | – | – |
| 676 ± 85 ng/mL | 0.25 h | 215 ± 37 mL/min/kg | 18.6 h | 429 ± 287 L/kg | 25.9 ± 21 h | 41.2% | 57.2% | CC(=O)c1ccc(O)cc1 [4-hydroxyacetophenone, 4-Hydroxyacetophenone] | 113028.5 ± 56412.0 µg·min/L | 202.7 ± 235.9 min⁻¹ | – | – | – | – | inhibited | Plasma, bile, urine, feces | – | – | – |
| 63.9 ± 10.1 ng/mL | 0.25 h | 1260 ± 165 mL/min/kg | 3.14 h | – | – | 17.7% | 39.5% | COC(=O)C1=CO[C@@H](O[C@@H]2O[C@H](CO[C@@H]3O[C@H](CO)[C@@H](O)[C@H](O)[C@H]3O)[C@@H](O)[C@H](O)[C@H]2O)[C@@H]2C(CO)=CC[C@H]12 [genipin-1-β-D-gentiobiodide, Genipin-1-β-D-gentiobiodide] | 31749.4 ± 15408.0 µg·min/L | 106.8 ± 25.5 min⁻¹ | – | – | – | – | – | Bile, urine | 280 ± 254 L/kg | 2.81 ± 3.01 h | – |

| Structure (SMILES) | Cmax ([1]; plasma) | Tmax ([1]; plasma) | CL/F ([1]; plasma) | MRT inf ([1]; plasma) | Vd/F ([1]; plasma) | half-life ([1]; plasma) | AUC(0-∞) reduced by, cholestatic model rats compared with normal rats [1] | Cmax reduced by, cholestatic model rats compared with normal rats [1] | AUC(0-∞) ([1]; plasma) | Ka ([1]; plasma) | Vd/F ([1]; in vivo) | half-life ([1]; in vivo) | AUC(0-∞) increased by, cholestatic model rats compared with normal rats [1] | Cmax increased by, cholestatic model rats compared with normal rats [1] | in vivo absorption and excretion processes in cholestatic rats (comparison of Ka and Ke) [1] | Source (biological samples in which the compound was identified) [2] | Vd/F ([1]; Sprague Dawley, plasma) | half-life ([1]; Sprague Dawley, plasma) | further results |
| --- | --- | --- | --- | --- | --- | --- | --- | --- | --- | --- | --- | --- | --- | --- | --- | --- | --- | --- | --- |
| O=C(O)C1=CO[C@@H](O[C@@H]2O[C@H](CO)[C@@H](O)[C@H](O)[C@H]2O)[C@@H]2C(CO)=CC[C@H]12 [Geniposidic acid] | 1690 ± 251 ng/mL | 4 h | – | 9.5 h | – | – | – | – | 3007701.6 ± 1408367.9 µg·min/L | 41280.6 ± 37036.2 min⁻¹ | – | – | 85.5% | 153.7% | significantly enhanced | Plasma, urine, feces | 4990 ± 1180 L/kg | 5.23 ± 1.44 h | – |
| COC(=O)C1=COC(OC2OC(CO)C(O)C(O)C2O)C2C(CO)=CC(O)C12 (stereo not drawn) [Scandoside methyl ester] | – | – | – | – | – | – | – | 26.3% | 300942.4 ± 177466.0 µg·min/L | 22.6 ± 38.8 min⁻¹ | 95.6 ± 26.6 L/kg | 11.5 ± 3.28 h | – | – | inhibited | Plasma, bile, urine, feces | – | – | Cmax ([1]; Sprague Dawley, in vivo): 93.8 ± 13.7 ng/mL; Tmax ([1]; Sprague Dawley, in vivo): 4.4 h; CL/F ([1]; Sprague Dawley, in vivo): 98 ± 16 mL/min/kg; MRT inf ([1]; Sprague Dawley, in vivo): 16.7 h |
